Earlier results on 1 compound are cited in article PMC4291223, “Inhibitors of CLK Protein Kinases Suppress Cell Growth and Induce Apoptosis by Modulating Pre-mRNA Splicing” (PLoS ONE, 2015).

This data set relates to CLK1 and CLK4. Details: method as in PMID 15010457. As to conditions: cited from earlier work.

As for `CCN1/C(=C/C(C)=O)Sc2ccc(OC)cc21` [TG003], the CLK selectivity entry was “selectively inhibits CLK1 and CLK4”.
